Reference: patent US20190055267A1, “ORGANOTRIFLUOROBORATE MIMICS OF AMINO ACIDS AND USES THEREOF” (The United States of America, as represented by the …, priority 2015, published 2019)
Read-outs that look alike come from different tables or passages of the source.

Tests used:
UM22B cells [1] = test: Competitive inhibition assay of 18F-Leu-BF3 uptake; assay type: cell-based; settings: 60 min incubation
Procedure: To study the specificity of BAA transportation, a competitive inhibition assay was performed using UM22B cells in the presence of natural amino acid and transporter inhibitor.

U87MG cells = test: In vitro competitive inhibition of boramino acid uptake by natural amino acids and transporter inhibitors; parameters: inhibition: dose or concentration left out as unconfirmed; settings: for inhibition / inhibition at 25000 µM: Homo sapiens, U-87 MG, 1 h; for inhibition: read-out: inhibition of uptake of 18F-Leu-BF3
Procedure: The U87MG cells were in Dulbecco modified Eagle medium and Minimum Essential Medium under a humidified atmosphere with 5% CO2 at 37° C. The culture media was supplemented with 10% fetal bovine serum, 100 U/mL penicillin, and 100 μg/mL streptomycin. […] Prior to incubation, the cells were washed with phosphate-buffered saline (PBS). […] The cells were then washed 3 times with ice-cold PBS, quenched with 0.1 M of NaOH and the cell-bound radioactivity was counted using a gamma counter. Uptake is defined as percentage of added radioactive dose (% AD).
The control is incubation with BAA only without competitor.

[2] = Solvolysis of the BF3 moiety in phosphate buffer; assay type: physicochemical
From the text: See also, Liu et al., Chem. Eur. J., 2015, 21:3924-8, incorporated herein by reference in its entirety.

[3] = COOH group of the corresponding amino acid; cited from earlier work
amino acid transporters [4] = test: Uptake-concentration kinetics, Michaelis-Menten fitting, in U87MG cells; assay type: cell-based, human; settings: 60 min at 37° C. in PBS, read-out: KM/μM, ^18F-AA-BF3 (BAA)
Procedure: The uptake of BAA in U87MG cells was measured at increasing concentrations in phosphate-buffered saline (PBS) and plotted against the concentration of BAA. […] The KM values of ^18F-BAAs were calculated by Michaelis-Menten fitting using Igor Pro 6.22.
The uptake-concentration correlations (FIGS. 12-15) fit well with Michaelis-Menten kinetics, giving the values of Table 4.

U87MG human glioma cells = assay type: cell-based
HEK293 cells = test: Cell uptake of 18F-Leu-BF3 in HEK293 cells; assay type: cell-based; settings: 120 min post incubation
UM22B cells [5] = test: Efflux of radioactivity from cells preloaded with 18F-Leu-BF3; assay type: cell-based; settings: UM22B cells loaded 120 min, 120 min post medium incubation
Procedure: ^18F-Leu-BF3 was first incubated with UM22B cells in PBS (phosphate buffered saline) for 120 min then was removed, followed by rapidly rinsing the cells with PBS three times. The cancer cells were incubated in medium essential medium for 10, 30, 60, and 120 min, and the residual radioactivity was measured (FIG. 16). The decreasing residual radioactivity is time-dependent, and most of the radioactive boramino acid was excreted from the cell in 90 min (less than 2% left at 120 min post medium incubation).
The radioactivity from efflux was further analyzed by re-injection into HPLC at 120 min (efflux: excreted from cell; influx: accumulated into cell). Only one peak was observed, and the elution time was corroborative to that for ^18F-Leu-BF3. The elution time here was 15 min, whereas in FIG. 1 the time was 12.5 min. After the data of FIG. 1 was obtained, maintenance was performed on the HPLC, after which the elution time of ^18F-Leu-BF3 on the HPLC was 15 min.

[6] = Metabolic stability in mouse plasma, HPLC analysis; assay type: in vitro ADME; settings: mouse plasma at 37° C. for 30 and 120 min
Procedure: To further evaluate the metabolic stability of boramino acid, ^18F-Leu-BF3 was incubated with mouse plasma at 37° C. for 30 and 120 min. After incubation, most of the radioactivity was extracted from the plasma and followed by HPLC analysis.

[7] = In vivo metabolic stability, HPLC analysis of urine and blood samples; settings: living animals
Procedure: To further evaluate its in vivo metabolic stability, ^18F-Leu-BF3 was also tested in living animals and followed by HPLC analysis of urine and blood samples.

UM22B xenograft = test: PET imaging and biodistribution in UM22B tumor-bearing mice; assay type: in vivo; settings: for bone uptake: PET, tumor-bearing mice; for Average Uptake (% ID/g), blood pool / Average Uptake (% ID/g), hottest voxel cluster of tumor / Average Uptake (% ID/g), kidney / Average Uptake (% ID/g), liver / Average Uptake (% ID/g), muscle / Average Uptake (% ID/g), whole tumor region of interest: UM22B-bearing mice, 120 min after injection
Procedure: All imaging studies were performed as follows. PET scans were obtained and image analysis were performed using an Inveon small-animal PET scanner (Malvern, Pa., USA). About 3.7 MBq of ^18F-AA were administered via tail vein injection under isoflurane anesthesia. […] For dynamic acquisition, 60 min dynamic PET scans were acquired, followed by a late-time-point scans at 2 h after tracer injection. With the acute inflammation model, 10-min static PET images were acquired at 1 h and 2 h after injection. The images were reconstructed using a 3-dimensional ordered subset expectation maximum algorithm, and no correction was applied for attenuation or scatter. For each scan, regions of interest (ROIs) were drawn using vendor software (ASI Pro 5.2.4.0; Siemens Medical Solutions) on decay-corrected whole-body coronal images. The radioactivity concentrations (accumulation) within the tumor, heart, muscle, liver, brain, and kidneys were obtained from mean pixel values within the multiple ROI volumes and then converted to megabecquerel per milliliter. These values were then divided by the administered activity to obtain (assuming a tissue density of 1 g/mL) an image-ROI-derived percentage injected dose per gram (% ID/g).

inflammatory lesion = test: PET imaging in the acute inflammation model; assay type: in vivo, mice; settings: compared with 18F-FDG (FIGS. 26-28)
Procedure: (§1) All imaging studies were performed as follows. PET scans were obtained and image analysis were performed using an Inveon small-animal PET scanner (Malvern, Pa., USA). About 3.7 MBq of ^18F-AA were administered via tail vein injection under isoflurane anesthesia. For static acquisition, 10-min static PET scans were acquired at 30, 60 and 120 min after injection. For dynamic acquisition, 60 min dynamic PET scans were acquired, followed by a late-time-point scans at 2 h after tracer injection. With the acute inflammation model, 10-min static PET images were acquired at 1 h and 2 h after injection. The images were reconstructed using a 3-dimensional ordered subset expectation maximum algorithm, and no correction was applied for attenuation or scatter. For each scan, regions of interest (ROIs) were drawn using vendor software (ASI Pro 5.2.4.0; Siemens Medical Solutions) on decay-corrected whole-body coronal images. The radioactivity concentrations (accumulation) within the tumor, heart, muscle, liver, brain, and kidneys were obtained from mean pixel values within the multiple ROI volumes and then converted to megabecquerel per milliliter. These values were then divided by the administered activity to obtain (assuming a tissue density of 1 g/mL) an image-ROI-derived percentage injected dose per gram (% ID/g).

UM22B xenografts [8] = test: PET imaging of 18F-Leu-BF3 co-injected with unlabeled Leu-BF3 (BNCT boron delivery); assay type: in vivo, mice
Procedure: as §1, with “ID/g). […]” for “ID/g).”

UM22B xenografts [9] = test: ICP analysis of boron in tissues after injection; assay type: in vivo, mice; settings: 60 min after injection of 10 mg
Procedure: Tumor-bearing mice were sacrificed at 60 min after injection of 10 mg of Leu-BF3. UM22B xenografts are dissolve into nitric acid and the resulting solution are analyzed by ICP.

amino acid transporters [10] = settings: natural amino acid, comparison value; read-out: KM/μM, AA; cited from earlier work
[11] = read-out: inhibition of uptake of 18F-Phe-BF3
[12] = time-activity curves, UM22B tumor-bearing mice (FIGS. 21 and 22)
[13] = U87MG cells, competitor at 25 mM, 60 min incubation

In the case of `NC1(C(=O)O)CC2CCC1C2` (stereo not shown) [BCH, 2-amino-2-norbornanecarboxylic acid], the “inhibition of cell uptake of 18F-Leu-BF3” value (UM22B cells [1]) is reported as 83.0%, the inhibition (U87MG cells) is reported as 77.4% and the inhibition at 25000 µM (U87MG cells; [11]) is reported as 72.1%. For the same compound, the “inhibition of uptake of 18F-Leu-BF3” value (U87MG cells; U87MG cells, BCH with sodium-free medium, 60 min incubation) was 83.0%.

With `CC(C)C[C@H]([NH3+])[B-](F)(F)F` [Leu-BF3] the t1/2/min ([2]; half-life in phosphate buffer at pH 7.4) was 2.51 days, the pKB-F ([2]; pK of the first fluorine of the BF3− moiety) was 3.7181 and the “k (solv)/min^−1” value ([2]; rate of solvolysis, phosphate buffer pH 7.4) was 0.0001914 min⁻¹. For the same compound, the “pka of corres. COOH” value [3] was 2.33.

With `F[B-](F)(F)[C@@H]1CCC[NH2+]1` [^18F-Pro-BF3] the Km (amino acid transporters [4]) was 65.6 ± 45.2 µM.

With `CC(C)C[C@H]([NH3+])[B-](F)(F)[18F]` [^18F-Leu-BF3] the cell uptake (U87MG human glioma cells) was ~7.5 % AD, the cell uptake (HEK293 cells) was 10.4 % AD and the “residual radioactivity left in cells” value (UM22B cells [5]) was “less than 2%”. For the same compound, the “defluoridation from boramino acid to boronic acid” value [6] was “almost negligible”, the “in vivo metabolic stability” value [7] was “neither participates in protein synthesis nor loses fluoride during in vivo circulation” and the bone uptake (UM22B xenograft) was “undetectable”. The “Average Uptake (% ID/g), blood pool” value (UM22B xenograft) was 0.47 ± 0.12 % ID/g, the “Average Uptake (% ID/g), hottest voxel cluster of tumor” value (UM22B xenograft) was 12.46 ± 3.0 % ID/g and the “Average Uptake (% ID/g), kidney” value (UM22B xenograft) was 2.32 ± 0.39 % ID/g. The “Average Uptake (% ID/g), liver” value (UM22B xenograft) was 0.83 ± 0.16 % ID/g, the “Average Uptake (% ID/g), muscle” value (UM22B xenograft) was 0.09 ± 0.03 % ID/g and the “Average Uptake (% ID/g), whole tumor region of interest” value (UM22B xenograft) was 6.72 ± 0.91 % ID/g. For the same compound, the “tumor uptake, peak voxel cluster value” (UM22B xenograft; comparison of 11C-Leu and 18F-Leu-BF3, one particular mouse (FIGS. 24 and 25)) was ~6.5 % ID/g, the “tumor uptake, peak voxel cluster value” (UM22B xenograft; [12]) was ~13 % ID/g and the “uptake in inflammatory lesion” value (inflammatory lesion) was “almost negligible”. The tumor uptake (UM22B xenografts [8]; 60 min after injection of <1 μg, 200 μg, 1 mg, 5 mg and 25 mg, by PET imaging) was ~10 % ID/g, the “boron concentration in tumor” value (UM22B xenografts [8]; 60 min post-injection, based on calculation) was “up to 30 ppm” and the boron in tumor (UM22B xenografts [9]; ICP analysis) was 34.5 ppm. It also gave a tumor-to-brain ratio (UM22B xenografts [9]; boron by ICP analysis) of 13.5.

With “^18F-fluorodeoxyglucose [^18F-FDG, reference compound]” the cell uptake (U87MG human glioma cells) was “less than 5 % AD”.

With `[NH3+][C@@H](Cc1ccccc1)[B-](F)(F)F` [^18F-Phe-BF3] the Km (amino acid transporters [4]) was 17.6 ± 4.2 µM.

In the case of `N[C@@H](CCC(=O)O)C(=O)O` [L-Glutamate], the “inhibition of uptake of 18F-Ala-BF3” value (U87MG cells; [13]) is reported as 50.3%, the “inhibition of uptake of 18F-Phe-BF3” value (U87MG cells; [13]) is reported as 13.0% and the “inhibition of uptake of 18F-Pro-BF3” value (U87MG cells; [13]) is reported as 0.2%.

For `[NH3+][C@@H](Cc1ccccc1)[B-](F)(F)[18F]` [^18F-Phe-BF3], the bone uptake (UM22B xenograft) was “undetectable”, the “Average Uptake (% ID/g), blood pool” value (UM22B xenograft) was 2.46 ± 0.50 % ID/g and the “Average Uptake (% ID/g), hottest voxel cluster of tumor” value (UM22B xenograft) was 13.29 ± 1.18 % ID/g. The “Average Uptake (% ID/g), kidney” value (UM22B xenograft) was 2.13 ± 0.34 % ID/g, the “Average Uptake (% ID/g), liver” value (UM22B xenograft) was 2.67 ± 0.44 % ID/g and the “Average Uptake (% ID/g), muscle” value (UM22B xenograft) was 2.31 ± 0.44 % ID/g. For the same compound, the “Average Uptake (% ID/g), whole tumor region of interest” value (UM22B xenograft) was 7.31 ± 0.78 % ID/g and the “tumor uptake, peak voxel cluster value” (UM22B xenograft; [12]) was “approximately 15 % ID/g”.

`CC(C)C[C@H]([NH3+])[B-](F)(F)F` [^18F-Leu-BF3] showed a Km (amino acid transporters [4]) of 25.9 ± 2.4 µM.

In the case of `CC(C)C[C@H](N)C(=O)O` [L-leucine], the “inhibition of cell uptake of 18F-Leu-BF3” value (UM22B cells [1]) is given as 94.7%, the Km (amino acid transporters [10]) is given as 19.7 ± 2.4 µM and the inhibition (U87MG cells) is given as ~98%.

For `N[C@@H](Cc1ccccc1)C(=O)O` [L-phenylalanine], the Km (amino acid transporters [10]) is given as 18.7 ± 4.1 µM, the inhibition at 25000 µM (U87MG cells; read-out: inhibition of uptake of 18F-Ala-BF3) is given as 71% and the inhibition at 25000 µM (U87MG cells; [11]) is given as ~80%. For the same compound, the inhibition at 25000 µM (U87MG cells; read-out: inhibition of uptake of 18F-Pro-BF3) was 0.1%.
